Test results taken from patent US10316020B2, “Indane derivatives and the use thereof as soluble guanylate cyclase activators” (NOVARTIS AG, priority 2015, dated 2019).
Where two headings read alike, the source gives them in different places.

Key:
[1] = target: T1, soluble guanylate cyclase (GUCYA3/GUCYB3) overexpressed in CHO cells (Homo sapiens, UniProt Q02108+Q02153); experiment: CHO cellular assay (cGMP production, HTRF); assay type: cell-based
T1 construct: expressed in transfected cells
T1 sequence (Q02108 1-690 partner): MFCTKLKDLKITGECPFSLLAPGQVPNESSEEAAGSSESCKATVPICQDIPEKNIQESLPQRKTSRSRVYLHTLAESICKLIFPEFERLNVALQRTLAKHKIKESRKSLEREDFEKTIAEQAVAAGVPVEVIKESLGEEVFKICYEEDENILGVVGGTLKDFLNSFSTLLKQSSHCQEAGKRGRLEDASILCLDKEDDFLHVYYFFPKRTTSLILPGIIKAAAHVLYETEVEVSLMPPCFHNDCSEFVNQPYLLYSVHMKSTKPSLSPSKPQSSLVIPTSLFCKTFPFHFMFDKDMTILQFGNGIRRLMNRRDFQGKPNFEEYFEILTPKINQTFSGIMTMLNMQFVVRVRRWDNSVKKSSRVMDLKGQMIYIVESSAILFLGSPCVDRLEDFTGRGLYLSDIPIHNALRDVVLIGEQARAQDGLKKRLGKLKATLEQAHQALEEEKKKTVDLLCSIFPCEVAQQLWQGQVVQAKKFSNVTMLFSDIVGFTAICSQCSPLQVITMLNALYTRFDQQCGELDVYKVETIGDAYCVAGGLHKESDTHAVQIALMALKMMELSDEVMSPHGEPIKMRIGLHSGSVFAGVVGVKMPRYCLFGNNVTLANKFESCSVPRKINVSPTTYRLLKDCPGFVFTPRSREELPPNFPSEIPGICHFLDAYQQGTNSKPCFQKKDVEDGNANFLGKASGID
T1 sequence (Q02153 1-619): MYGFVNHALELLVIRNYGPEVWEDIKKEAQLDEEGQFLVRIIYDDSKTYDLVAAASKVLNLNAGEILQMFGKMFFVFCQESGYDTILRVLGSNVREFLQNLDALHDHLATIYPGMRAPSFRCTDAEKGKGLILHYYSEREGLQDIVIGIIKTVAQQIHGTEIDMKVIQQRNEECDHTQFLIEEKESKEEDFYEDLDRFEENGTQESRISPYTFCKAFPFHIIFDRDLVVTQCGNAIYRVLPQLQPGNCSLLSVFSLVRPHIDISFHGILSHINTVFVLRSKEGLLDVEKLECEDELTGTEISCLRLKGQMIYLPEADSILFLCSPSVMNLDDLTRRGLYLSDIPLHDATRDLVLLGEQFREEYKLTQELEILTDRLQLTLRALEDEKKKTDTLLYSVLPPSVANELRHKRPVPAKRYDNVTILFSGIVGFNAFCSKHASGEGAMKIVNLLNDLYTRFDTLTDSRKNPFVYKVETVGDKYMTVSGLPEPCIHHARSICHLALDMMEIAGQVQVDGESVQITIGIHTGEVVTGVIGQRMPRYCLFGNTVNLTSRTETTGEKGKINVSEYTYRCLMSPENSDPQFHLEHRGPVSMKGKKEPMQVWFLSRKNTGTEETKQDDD
Text: Chinese hamster ovary (CHO) cells overexpressing soluble guanylate cyclase were generated to test the effect of sGC activators in a cellular context. Human cDNAs for GUCYA3 (RefSeq: NM_000856.3) and GUCYB3 (RefSeq: NM_000857.1) were amplified by PCR from a HUVEC (Human Umbilical Vein Endothelial Cells) cDNA library and cloned into mammalian expression vectors. CHO K1 cells (ATCC CCL-61) were transfected using Lipofectamine 2000 following manufacturer's instructions and stably expressing clones were identified by antibiotic selection. CHO GUCY clone 8E10 was used for subsequent experiments.
Cells were seeded at a density of 3000 cells/well in white 384-well proxyplates (Perkin Elmer) and incubated overnight, then the medium was removed and cells were washed with assay buffer (HBSS, 0.1% BSA, 1 mM IBMX, 20 uM ODQ). sGC activators were serially diluted in DMSO, then diluted in assay buffer prior to adding to cells (10 ul/well, final DMSO concentration 0.5%). Cells were incubated with compounds for 1 h at room temperature, then assayed for cGMP production using Cisbio cGMP HTRF kit (62GM2PEC) according to manufacturer's instructions.
The EC50s are calculated based on the amount of cGMP interpolated from the standard curve, using a 4-parameter sigmoidal dose-response.
Compounds of invention are active on sGC activation. Data in Table 1 collected using the assay of Biological Example 1.

[2] = Pharmacokinetic clearance in intravenously dosed rats; assay type: in vivo; conditions: male, Sprague-Dawley, rat, whole blood, iv, 0.5 mg/kg
Procedure: Sprague-Daley rats were administered sGC activators intravenously to assess the systemic clearance rates of the compounds from blood by non-compartmental analysis. Compounds with high clearance rates may be less prone to exert unwanted systemic (non-local) pharmocoligcal effects, which may be a benefical property for a compound intended to be dosed via topical ocular administration with the aim of exerting a pharmacological reponse locally in the eye.
In order to assess the pharmacokinetic parameters, male Sprague-Dawley rats were given 1 mL/Kg of the dosing solution (delineated in the table below) containing a test article (0.5 mg/kg) per kg of body weight via slow intravenous injection into an indwelling jugular vein catheter in a discrete PK study. Alternatively, male Sprague-Dawley rats were given 1 mL/Kg of the dosing solution containing three test articles (0.5 mg/kg each, 1.5 mg/kg total) per kg of body weight via slow intravenous injection into an indwelling jugular vein catheter in a cassette PK study. Diet and water was provided ad libitum without exception. At specified time following a single intravenous bolus injection, approximately 100 μL of whole blood was collected from indwelling catheter in jugular vein. The blood was stored frozen at −20° C. before an LC-MS/MS method was used to quantitate drug levels in the blood. All pharmacokinetic (PK) parameters were derived from concentration-time data by non-compartmental analyses using WinNonlin Phoenix version 6.4 (Certara, St. Louis, Mo.). For the intravenous dose, the concentration of unchanged compound at time 0 was calculated based on a log-linear regression of first two data points to back-extrapolate C(0). The area under the concentration-time curve was calculated using the linear trapezoidal rule.
Data in Table 2 collected using the assay of Biological Example 2 compares compounds from the present invention to other sGC activators previously disclosed PCT/IB2015/055006 filed Jul.

[3] = CHO cellular assay, as repeated in Table 2, read-out: EC50 from biological Example #1
[4] = i.v. 0.5 mg/kg each, three test articles, Cassette - E (10% propylene glycol, 10% Solutol HS15, PBS)
[5] = i.v. 0.5 mg/kg, Discrete - D (10% propylene glycol, 10% Solutol HS15, PBS)
[6] = CHO GUCY clone 8E10, assay buffer with 1 mM IBMX, 20 uM ODQ, 1 h at room temperature, cGMP HTRF, quantification limit 0.0005 μM, read-out: Mean EC50

EC50 [1, 3] [nM]	clearance [2, 5] [mL/min/kg]	EC50 [1, 6] [nM]	SMILES	also measured
< 0.5			Cc1cc(C2CCN(C(=O)C3CC3)CC2)ccc1NC1CCc2cccc(-c3cccc(-n4ncc(C(=O)O)c4C)c3)c21 (single isomer, unassigned; (+)) [(+)-1-(3-(3-((4-(1-(cyclopropanecarbonyl)piperidin-4-yl)-2-methylphenyl)amino)-2,3-dihydro-1H-inden-4-yl)phenyl)-5-methyl-1H-pyrazole-4-carboxylic acid, reference compound]	clearance ([2]; i.v. 0.5 mg/kg each, three test articles, Cassette - F (20% propylene glycol, 10% Solutol HS15, PBS)): 24.9 mL/min/kg
< 0.5	25.6		Cc1cc(C2CCN(C(=O)C3CC3)CC2)ccc1CC1CCc2cccc(-c3cccc(-n4ncc(C(=O)O)c4C)n3)c21 (single isomer, unassigned; (+)) [(+)-1-(6-(3-(4-(1-(cyclopropanecarbonyl)piperidin-4-yl)-2-methylbenzyl)-2,3-dihydro-1H-inden-4-yl)pyridin-2-yl)-5-methyl-1H-pyrazole-4-carboxylic acid]	clearance [2, 4]: 97.2 mL/min/kg
< 0.5			CCc1cc(OC2CCc3cccc(-c4cccc(-n5ncc(C(=O)O)c5CC)n4)c32)ccc1C1CCN(C(=O)C2CC2)CC1 (single isomer, unassigned; (+)) [(+)-1-(6-(3-(4-(1-(cyclopropanecarbonyl)piperidin-4-yl)-3-ethylphenoxy)-2,3-dihydro-1H-inden-4-yl)pyridin-2-yl)-5-ethyl-1H-pyrazole-4-carboxylic acid]	clearance [2, 4]: 6.6 mL/min/kg; clearance ([2]; i.v. 0.5 mg/kg, Discrete - G (20% propylene glycol, 50% of 20% Solutol HS15, water)): 14 mL/min/kg
< 0.5	38		CCc1cc(NC2CCc3cccc(-c4cccc(-n5ncc(C(=O)O)c5CC)n4)c32)ccc1C1=CCN(C(=O)C2CC2)CC1 (single isomer, unassigned; (+)) [(+)-1-(6-(3-((4-(1-(cyclopropanecarbonyl)-1,2,3,6-tetrahydropyridin-4-yl)-3-ethylphenyl)amino)-2,3-dihydro-1H-inden-4-yl)pyridin-2-yl)-5-ethyl-1H-pyrazole-4-carboxylic acid, reference compound]	
< 0.5		< 0.5	CCc1cc(NC2CCc3cccc(-c4cccc(-n5ncc(C(=O)O)c5OC)c4)c32)ccc1C1CCN(C(=O)[C@H](C)O)CC1 (single isomer, unassigned; (+)) [Example 4A]	clearance ([2]; i.v. 0.5 mg/kg, Discrete - C (20% PEG 300, 10% Solutol HS15, PBS)): > 100 mL/min/kg
7	98	7	CCc1cc(NC2CCc3cccc(-c4cccc(-n5ncc(C(=O)O)c5N)n4)c32)ccc1C1CCN(C(=O)C2CC2)CC1 (single isomer, unassigned; (+)) [Example 18A, (+)-5-Amino-1-(6-(3-((4-(1-(cyclopropanecarbonyl)piperidin-4-yl)-3-ethylphenyl)amino)-2,3-dihydro-1H-inden-4-yl)pyridin-2-yl)-1H-pyrazole-4-carboxylic acid]	
< 0.5			Cc1cc(C2CCN(C(=O)[C@H](C)O)CC2)ccc1NC1CCc2cccc(-c3cccc(-n4ncc(C(=O)O)c4C)n3)c21 (single isomer, unassigned; (+)) [reference compound]	clearance [2, 4]: 48.3 mL/min/kg
< 0.6		< 0.6	CCc1cc(C[C@H]2CCc3cccc(-c4cccc(-n5ncc(C(=O)O)c5OC)c4)c32)ccc1C1CCN(C(=O)C2CC2)CC1 [Example 1A, (+)-(R)-1-(3-(3-(4-(1-(Cyclopropanecarbonyl)piperidin-4-yl)-3-ethylbenzyl)-2,3-dihydro-1H-inden-4-yl)phenyl)-5-methoxy-1H-pyrazole-4-carboxylic acid]	clearance ([2]; i.v. 0.5 mg/kg, Discrete - A (10% propylene glycol, 1 eq NaOH, 25% of 20% Solutol HS15, PBS)): > 100 mL/min/kg
< 0.5		< 0.5	CCc1cc(N[C@H]2CCc3cccc(-c4cccc(-n5ncc(C(=O)O)c5OC)c4)c32)ccc1C1CCN(C(=O)C2CC2)CC1 [Example 3A, (+)-(S)-1-(3-(3-((4-(1-(Cyclopropanecarbonyl)piperidin-4-yl)-3-ethylphenyl)amino)-2,3-dihydro-1H-inden-4-yl)phenyl)-5-methoxy-1H-pyrazole-4-carboxylic acid]	clearance ([2]; i.v. 0.5 mg/kg, Discrete - B (20% PEG 300, 1 eq NaOH, 10% Solutol HS15, PBS)): > 100 mL/min/kg
< 0.5	89	< 0.5	CCc1cc(O[C@H]2CCc3cccc(-c4cccc(-n5ncc(C(=O)O)c5OC)c4)c32)ccc1C1CCN(C(=O)C2CC2)CC1 [Example 5, (+)-(S)-1-(3-(3-(4-(1-(Cyclopropanecarbonyl)piperidin-4-yl)-3-ethylphenoxy)-2,3-dihydro-1H-inden-4-yl)phenyl)-5-methoxy-1H-pyrazole-4-carboxylic acid]	
		< 0.5	CCc1cc(C[C@H]2CCc3cccc(-c4cccc(-n5ncc(C(=O)O)c5OC)n4)c32)ccc1C1CCN(C(=O)[C@H](C)O)CC1 [Example 24, (+)-(R)-1-(6-(3-(3-Ethyl-4-(1-((S)-2-hydroxypropanoyl)piperidin-4-yl)benzyl)-2,3-dihydro-1H-inden-4-yl)pyridin-2-yl)-5-methoxy-1H-pyrazole-4-carboxylic acid]	
